Results: patent US8895579B2, “Heterotricyclic AMPA receptor antagonists for treatment of epilepsy, pain, and other neurological disorders and diseases” (Northwestern University, priority 2010, dated 2014)

Assays:
Type in all cases: cell-based
[1] = biological target: T1, homomeric GluA1 AMPA receptor (Rattus norvegicus, UniProt P19490); assay: Whole-cell patch clamp of recombinant GluA1 receptors in HEK293-T/17 cells; conditions: 30 μM; 10 mM glutamate
T1 construct: expressed in transfected cells; host or cells: HEK293-T/17 (CRL-11268)
T1 sequence (P19490 19-907 isoform P19490-2 limits assumed): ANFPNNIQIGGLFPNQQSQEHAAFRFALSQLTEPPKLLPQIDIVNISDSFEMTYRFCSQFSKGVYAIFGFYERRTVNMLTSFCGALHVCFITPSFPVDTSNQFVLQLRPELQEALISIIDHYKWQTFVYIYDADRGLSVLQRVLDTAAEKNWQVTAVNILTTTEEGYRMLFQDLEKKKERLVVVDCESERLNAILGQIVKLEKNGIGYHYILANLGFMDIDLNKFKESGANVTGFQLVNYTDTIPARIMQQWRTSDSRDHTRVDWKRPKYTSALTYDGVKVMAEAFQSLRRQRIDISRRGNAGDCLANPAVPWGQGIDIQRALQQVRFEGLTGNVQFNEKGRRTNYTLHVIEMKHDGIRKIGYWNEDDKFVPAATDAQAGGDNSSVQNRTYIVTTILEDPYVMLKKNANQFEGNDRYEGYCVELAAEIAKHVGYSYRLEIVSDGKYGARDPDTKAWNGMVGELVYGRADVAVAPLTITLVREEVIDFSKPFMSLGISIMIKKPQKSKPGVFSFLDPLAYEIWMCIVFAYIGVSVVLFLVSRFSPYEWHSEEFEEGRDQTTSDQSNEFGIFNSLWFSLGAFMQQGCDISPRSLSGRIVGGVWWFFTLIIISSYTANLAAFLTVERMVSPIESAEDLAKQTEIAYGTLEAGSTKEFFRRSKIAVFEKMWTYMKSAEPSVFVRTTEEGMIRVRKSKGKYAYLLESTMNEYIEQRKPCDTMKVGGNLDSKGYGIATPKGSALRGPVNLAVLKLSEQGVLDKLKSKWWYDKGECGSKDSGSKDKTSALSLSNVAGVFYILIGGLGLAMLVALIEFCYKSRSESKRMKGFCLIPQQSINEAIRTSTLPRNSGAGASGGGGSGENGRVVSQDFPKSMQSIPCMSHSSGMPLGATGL
Description: (§1) Cell Culture and Transfection. Human embryonic kidney cells expressing T-antigen, clone 17 (HEK293-T/17) (CRL-11268) were cultured at 37° C. with 5% CO2 in DMEM, including 100 μg/mL penicillin, 100 μg/mL streptomycin, and 10% heat-inactivated fetal bovine serum. Cells were split twice per week. For transfection, HEK293-T/17 cells were plated at 3×10^4 cells/cm^2 for pharmacology experiments and 5×10^3 cells/cm^2 for physiology experiments in fresh medium 24 h prior to transfection. Cells were transfected with AMPA or KA receptor plasmid cDNAs using Mirus Trans-IT transfection reagent (Minus Bio Corporation, Madison, Wis.) at a ratio of 1 μg cDNA: 3 μL Trans-1T reagent and maintained in transfection medium overnight followed by a media change the next day. Transfected cells were maintained in this medium until the experiment was conducted (48-72 h total post transfection).
(§2) Electrophysiology. For analysis of recombinant receptors, HEK293-T/17 cells were co-transfected with 0.2 μg of iGluR cDNA and 0.05 μg of eGFP. For heterologous GluA1/GluA2 receptors, the GluA1:GluA2 cDNA ratio was 1:6. Two to three days post-transfection, eGFP-expressing cells were lifted from the cover slip and voltage clamped in whole cell mode. […]

[2] = biological target: T2, homomeric GluK1-2b kainate receptor (Rattus norvegicus, UniProt P22756); assay: Whole-cell patch clamp of recombinant GluK1-2b receptors in HEK293-T/17 cells; conditions: 30 μM; 10 mM glutamate
T2 construct: myc; expressed in transfected cells; host or cells: HEK293-T/17 (CRL-11268)
T2 sequence (P22756 31-905 isoform P22756-2 limits assumed): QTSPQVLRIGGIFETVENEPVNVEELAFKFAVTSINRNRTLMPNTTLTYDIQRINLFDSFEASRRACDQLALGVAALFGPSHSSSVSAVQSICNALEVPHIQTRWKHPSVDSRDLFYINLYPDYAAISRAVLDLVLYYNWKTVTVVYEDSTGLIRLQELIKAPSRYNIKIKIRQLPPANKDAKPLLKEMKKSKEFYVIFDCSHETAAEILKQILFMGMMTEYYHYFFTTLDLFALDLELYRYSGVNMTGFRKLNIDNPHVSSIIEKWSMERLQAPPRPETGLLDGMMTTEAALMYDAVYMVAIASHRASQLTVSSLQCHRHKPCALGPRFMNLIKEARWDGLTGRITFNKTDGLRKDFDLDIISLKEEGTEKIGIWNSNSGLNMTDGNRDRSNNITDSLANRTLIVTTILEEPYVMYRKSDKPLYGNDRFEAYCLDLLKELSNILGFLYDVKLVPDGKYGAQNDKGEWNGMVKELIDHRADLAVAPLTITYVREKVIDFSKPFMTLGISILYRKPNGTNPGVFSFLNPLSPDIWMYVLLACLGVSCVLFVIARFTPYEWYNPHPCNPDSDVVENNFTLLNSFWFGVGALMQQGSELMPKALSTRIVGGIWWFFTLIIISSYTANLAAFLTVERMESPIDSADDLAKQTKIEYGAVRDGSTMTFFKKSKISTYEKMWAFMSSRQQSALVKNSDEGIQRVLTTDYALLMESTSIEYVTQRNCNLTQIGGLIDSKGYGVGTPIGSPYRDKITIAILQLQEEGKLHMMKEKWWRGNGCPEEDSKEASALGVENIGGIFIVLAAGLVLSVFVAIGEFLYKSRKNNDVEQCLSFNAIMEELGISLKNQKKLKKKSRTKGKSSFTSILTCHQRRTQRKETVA
Description: as §1, §2

[3] = test system: primary hippocampal neurons; assay: In vitro model of status epilepticus (Mg2+ removal, 2 μM glycine), action potential firing in hippocampal neurons
Description: Experiments involving primary hippocampal neurons were carried out as described previously (Vivithanaporn et al., 2007). Dissociated neurons were cultured from E18 prenatal hippocampi and were used for analysis from between 17 and 28 days in vitro. The extracellular solution was the same as used for recombinant receptor analysis, while the internal solution for voltage clamp recordings contained (in mM) 95 CsF, 25 CsCl, 10 Cs-HEPES, 10 EGTA, 2 NaCl, 2 Mg-ATP, 10 QX-314, 5 TEA. and 5 4-AP (pH 7.3) and the internal solution for current clamp recordings contained (in mM) 120 KMeSO4, 5 KCl, 5 NaCl, 1 MgCl2, 11 Na-HEPES, 10 phosphocreatine, 4 Na-ATP, and 0.3 Na-GTP (pH 7.0). Borosilicate patch electrodes were pulled and fire polished to 3-5 MΩ resistance. Both whole cell current clamp and voltage clamp recordings were performed using an Axopatch 200B amplifier (MDS, Sunnyvale, Calif.) and filtered at 20 kHz. Gigaohm seals were established in voltage clamp mode and, after membrane rupture, the recordings were carried out either in voltage clamp (clamped at Vm=−70 mV) with a […] series resistance, which was compensated to ˜60%, or in current clamp mode ([…]) with the bridge balance was corrected and pipette resistance neutralized. In vitro status epilepticus (SE) was induced as described previously (Deshpande et al., 2007; Pal et al., 1999) and action potentials were recorded in current clamp mode. Briefly for in vitro SE, magnesium-containing external solution was exchanged for external solution without magnesium and supplemented with 2 μM glycine. This solution exchange produced a period of rapid depolarization and increased AP firing, followed by a period of channel inactivation and reduced AP firing. After channel inactivation, neurons characteristically would hyperpolarize to hold at a membrane voltage (Vm) which was depolarized relative to control Vm, with an increase in AP firing frequency. […] External solutions were bath-applied at a flow rate of 1.5-2 ml/minute. After recording a basal control period, IKM compounds were applied for five minutes (10 minutes for in vitro SE experiments) and changes in excitatory post-synaptic current (EPSC) charge transfer or action potential (AP) frequency were analyzed during the last two minutes of IKM application.
Several AMPA receptor selective antagonists reduce neuronal hyperactivity in both acute brain slice preparations and in in vitro models of epilepsy (Grasso et al., 1999; Szabados et al., 2001). […] We therefore tested the efficacy of IKM-159 in reducing the hyperactive neuronal phenotype in dissociated hippocampal neurons using an in vitro model of status epilepticus (SE) (Deshpande et al., 2007; Pal et al., 1999). […]

Question: For `O=C(O)C[C@@]12O[C@H]3C=CCN[C@H]3C1CN[C@H]2C(=O)O` (some centres unmarked) [IKM-159], which “GluA1 peak amplitude as percent of basal (glutamate alone) peak” value [1] is on record?
Answer: Its value is 92±3%.

Question: And the “GluK1-2b peak amplitude as percent of basal peak glutamate current” value [2]?
Answer: The value was 90±10%.

Question: And the “AP firing frequency in SE condition with compound” value ([3]; 3 μM, SE condition 5.7±1.2 Hz, n.s.)?
Answer: The value was 4.3±1.7 Hz.

Question: What about the “AP firing frequency upon wash out of compound” value ([3]; 20 μM, 10 minutes after removal) of the same compound?
Answer: The value was 1.0±0.3 Hz.

Question: What about the “AP firing frequency in SE condition with compound” value ([3]; 20 μM, SE condition 2.3±0.4 Hz) of the same compound?
Answer: The value was 0.9±0.3 Hz.
